SMILES strings stand for the structures. Where two headings read alike, the source gives them in different places.

One experiment has as its system IFN-γ. Nature of the experiment: IFN-γ production by PHA-stimulated human PBMC (OptEIA human IFN-g ELISA). The class given is cell-based. To be noted: PHA-stimulated human PBMC, 48 hours; column C; read-out: IC50 (IFNγ). How it is done: Analysis of Proliferation of and Cytokine Production by Human PBMC Stimulated with PHA
Peripheral blood mononuclear cells (PBMC) from healthy human donors were purified using Accuspin™ System-Histopaque-1077 (Sigma) according to the protocol recommended by the manufacturer. Purified PBMC were then washed twice with phosphate-buffered saline (PBS) and resuspended in RPMI1640 culture medium supplemented with 10% dialyzed heat inactivated fetal calf serum, 1.5 mM L-glutamine, 100 U penicillin/ml, and […] (all from PAN Biotech, Aidenbach, Germany). For stimulation, PBMC were seeded at 1×10^5 cells/well, activated with 2 μg/ml phytohaemagglutinin (PHA, Sigma) and incubated with the test compounds for 48 hours. IL-17A, IL-17F and INF-γ were then determined in the culture supernatant using a Luminex BioPlex system, following the manufacturer's instructions (BioRad, Munich, Germany). For screening, compounds were used at 10, 1, 0.1 and 0.01 μM. To determine the IC50, compounds were titrated semilogarithmically.
Cytokines were determined in the aforementioned culture supernatant using the following methods: IL-17AA/AF was measured using the Luminex BioPlex system (BioRad, Munich, Germany); IL-17AA using the human homodimer IL-17A ELISA Ready Set Go Kit from eBioscience (Frankfurt, Germany); IL-17FF using the human IL-17F ELI-Pair from Hölzel DiagnosticaGmBH (Köln, Germany); and IFN-γ using the OptEIA human IFN-g ELISA from BD Bioscience (Heidelberg, Germany), all following the manufacturer's instructions.

Experiment [1] concerns PBMC from healthy human donors. Nature of the experiment: T cell proliferation assay (PHA-stimulated human PBMC, BrdU ELISA). The format is cell-based. To be noted: 48 hours. The procedure: Cell proliferation was analysed using the BrdU based cell proliferation ELISA from Roche (Mannheim, Germany) according to the manufacturer's instructions. T Cell Proliferation Assay Peripheral blood mononuclear cells (PBMC) from healthy human donors were isolated by centrifugation over Ficoll-Hypaque (Sigma-Aldrich, Germany) according to manufacturer's instructions. Purified PBMC were washed twice with PBS and resuspended in RPMI1640 culture medium supplemented with 10% dialyzed heat inactivated fetal calf serum, 1.5 mM L-glutamine, 100 U penicillin/ml, and […] (all from PAN Biotech, Aidenbach, Germany). For stimulation, PBMC were seeded at 1×10^5 cells/well, activated with 2 μg/ml phytohaemagglutinin (PHA, Sigma) and incubated with the test compound. After 48 hours proliferation was measured using the BrdU based cell proliferation ELISA from Roche (Mannheim, Germany) according to the manual.
Background: Dividing cells build labelled thymidine or BrdU into new DNA.

The mark [2] stands for this setting: PHA-stimulated human PBMC, column D, read-out: IC50 (Tcell proliferation).

Consider `NC(=O)c1c(-c2c(F)cccc2Cl)noc1-c1cnn(-c2cccc(F)c2)c1C(F)(F)F` [Example I-124, 3-(2-chloro-6-fluorophenyl)-5-(1-(3-fluorophenyl)-5-(trifluoromethyl)-1H-pyrazol-4-yl)isoxazole-4-carboxamide], for which the IC50 (in the experiment with IFN-γ; in experiment [1] (setting [2])) was 1 to 10 µM in each case.
Consider `O=C(c1c(-c2c(F)cccc2Cl)noc1-c1cnn(-c2ccccc2F)c1C(F)(F)F)N1CCN(Cc2cccc(Cl)c2)CC1` [Example I-24, (3-(2-chloro-6-fluorophenyl)-5-(1-(2-fluorophenyl)-5-(trifluoromethyl)-1H-pyrazol-4-yl)isoxazol-4-yl)(4-(3-chlorobenzyl)piperazin-1-yl)methanone], for which the figures for the IC50 (in the experiment on IFN-γ; in experiment [1] (setting [2])) were 1 to 10 µM and 0.1 to 1 µM, respectively.
On the same counts, the results for `CCOC(=O)c1c(-c2c(F)cccc2Cl)noc1-c1cnn(-c2ccc(C#N)cc2)c1C(F)(F)F` [IB-40, ethyl 3-(2-chloro-6-fluorophenyl)-5-(1-(4-cyanophenyl)-5-(trifluoromethyl)-1H-pyrazol-4-yl)-isoxazole-4-carboxylate] are 1 to 10 µM and 1 to 10 µM.
For the molecule `COc1ccc(-c2noc(-c3cnn(-c4cccc(F)c4)c3C(F)(F)F)c2C(=O)O)cc1` [Example I-108, 5-(1-(3-fluorophenyl)-5-(trifluoromethyl)-1H-pyrazol-4-yl)-3-(4-methoxyphenyl)isoxazole-4-carboxylic acid], the IC50 in experiment [1] (setting [2]) is 1 to 10 µM.
`CON(C)C(=O)c1c(-c2c(F)cccc2Cl)noc1-c1cnn(-c2ccccc2Br)c1C(F)(F)F` [IB-74, 5-(1-(-2-bromophenyl)-5-(trifluoromethyl)-1H-pyrazol-4-yl)-3-(2-chloro-6-fluorophenyl)-N-methoxy-N-methylisoxazole-4-carboxamide]: the IC50 (in the experiment on IFN-γ; in experiment [1] (setting [2])) was 1 to 10 µM throughout.
In the case of `O=C(O)c1c(-c2c(F)cccc2Cl)noc1-c1cnn(Cc2ccccc2F)c1C(F)(F)F` [IB-86, 3-(2-chloro-6-fluorophenyl)-5-(1-(2-fluorobenzyl)-5-(trifluoromethyl)-1H-pyrazol-4-yl)isoxazole-4-carboxylic acid], the IC50 in experiment [1] (setting [2]) was 1 to 10 µM.
On the same count and under the same terms, the result for `COC(=O)c1c(-c2c(F)cccc2Cl)noc1-c1cnn(-c2cccc(Cl)c2Cl)c1C(F)(F)F` [Example I-4, methyl 3-(2-chloro-6-fluorophenyl)-5-(1-(2,3-dichlorophenyl)-5-(trifluoromethyl)-1H-pyrazol-4-yl)isoxazole-4-carboxylate] reads 1 to 10 µM; that for `COC(=O)c1c(-c2c(F)cccc2Cl)noc1-c1cnn(-c2ccccc2I)c1C(F)(F)F` [Example I-88, methyl 3-(2-chloro-6-fluorophenyl)-5-(1-(2-iodophenyl)-5-(trifluoromethyl)-1H-pyrazol-4-yl)isoxazole-4-carboxylate], 1 to 10 µM.
On the same count and under the same terms, for `COC(=O)c1c(-c2c(F)cccc2Cl)noc1-c1cnn(-c2onc(-c3ccc(Cl)cc3)c2C(=O)OC)c1C(F)(F)F` [Example I-131, methyl 3-(2-chloro-6-fluorophenyl)-5-{[1-(4-methoxycarbonyl-3-(4-chlorophenyl)isoxazol-5-yl)-5-trifluoromethyl-1H-pyrazol-4-yl]}-isoxazole-4-carboxylate] the value was 1 to 10 µM.
The same measure, in the same setting: for `COC(=O)c1c(-c2c(F)cccc2Cl)noc1-c1cnn(-c2ncc(C(F)(F)F)cc2Cl)c1C(F)(F)F` [Example I-87] the value was 1 to 10 µM.
Consider `CC(C)OC(=O)c1c(-c2c(F)cccc2Cl)noc1-c1cnn(-c2cccc(S(N)(=O)=O)c2)c1C(F)(F)F` [IB-73, isopropyl 3-(2-chloro-6-fluorophenyl)-5-(1-(3-sulfamoylphenyl)-5-(trifluoromethyl)-1H-pyrazol-4-yl)isoxazole-4-carboxylate], for which the IC50 (with IFN-γ; in experiment [1] (setting [2])) was 1 to 10 µM in each case.
Consider `CCOc1cc(-n2ncc(-c3onc(-c4c(F)cccc4Cl)c3C(=O)OC)c2C(F)(F)F)ncn1` [Example I-116, methyl 3-(2-chloro-6-fluorophenyl)-5-(1-(6-ethoxypyrimidin-4-yl)-5-(trifluoromethyl)-1H-pyrazol-4-yl)isoxazole-4-carboxylate], for which the IC50 in experiment [1] (setting [2]) was 1 to 10 µM.
On the same count and under the same terms, the result for `NNC(=O)c1c(-c2cccc(F)c2)noc1-c1cnn(-c2cccc(F)c2)c1C(F)(F)F` [Example I-134, 3-(3-fluorophenyl)-5-(1-(3-fluorophenyl)-5-(trifluoromethyl)-1H-pyrazol-4-yl)isoxazole-4-carbohydrazide] reads 1 to 10 µM.
For the molecule `CC(C)Cn1ncc(-c2onc(-c3c(F)cccc3Cl)c2-c2nnn[nH]2)c1C(F)(F)F` [Example 1, 3-(2-chloro-6-fluorophenyl)-5-(1-isobutyl-5-(trifluoromethyl)-1H-pyrazol-4-yl)-4-(1H-tetrazol-5-yl)isoxazole], the IC50 in experiment [1] (human PBMC, 2 μg/ml PHA, read-out: D: IC50 (Tcell proliferation)) is 1 to 10 µM.
Consider `O=C(c1c(-c2c(F)cccc2Cl)noc1-c1cnn(-c2ccccc2F)c1C(F)(F)F)N1CCCCC1` [Example I-21, (3-(2-chloro-6-fluorophenyl)-5-(1-(2-fluorophenyl)-5-(trifluoromethyl)-1H-pyrazol-4-yl)isoxazol-4-yl)(piperidin-1-yl)methanone], for which the IC50 (in the experiment on IFN-γ; in experiment [1] (setting [2])) was 0.01 to 0.1 µM throughout.
Take `COC(=O)c1c(-c2ccc(Cl)cc2)noc1-c1cnn(-c2cccc(F)c2)c1C(F)(F)F` [Example I-73, methyl 3-(4-chlorophenyl)-5-(1-(3-fluorophenyl)-5-(trifluoromethyl)-1H-pyrazol-4-yl)isoxazole-4-carboxylate]: the IC50 in experiment [1] (setting [2]) lay in the range of 1 to 10 µM.
For `COC(=O)c1c(-c2c(F)cccc2Cl)noc1-c1cnn(-c2cccc(F)c2)c1C(F)(F)C(F)F` [Example I-64, methyl 3-(2-chloro-6-fluorophenyl)-5-(1-(3-fluorophenyl)-5-(1,1,2,2-tetrafluoroethyl)-1H-pyrazol-4-yl)isoxazole-4-carboxylate], in experiment [1] (setting [2]), the IC50 is 1 to 10 µM.
On to `CC(C)=NNC(=O)c1c(-c2c(F)cccc2Cl)noc1-c1cnn(-c2cccc(F)c2)c1` [IB-29, 3-(2-chloro-6-fluorophenyl)-5-(1-(3-fluorophenyl)-1H-pyrazol-4-yl)-N′-(propan-2-ylidene)isoxazole-4-carbohydrazide], for which the IC50 (in the experiment with IFN-γ; in experiment [1] (setting [2])) was 1 to 10 µM each time.
`COC(=O)c1c(-c2c(F)cccc2Cl)noc1-c1cnn(-c2nc(-c3ccc(F)cc3)cs2)c1C(F)(F)F` [Example I-54, methyl 3-(2-chloro-6-fluorophenyl)-5-(1-(4-(4-fluorophenyl)thiazol-2-yl)-5-(trifluoromethyl)-1H-pyrazol-4-yl)isoxazole-4-carboxylate]: in experiment [1] (setting [2]), the IC50 was 1 to 10 µM.
Consider `Fc1ccccc1-n1ncc(-c2onc(-c3c(F)cccc3Cl)c2Br)c1C(F)(F)F` [IB-26, 4-bromo-3-(2-chloro-6-fluorophenyl)-5-(1-(2-fluorophenyl)-5-(trifluoromethyl)-1H-pyrazol-4-yl)isoxazole], for which the IC50 was in the range of 0.1 to 1 µM in the experiment with IFN-γ and 1 to 10 µM in experiment [1] (setting [2]).
On the same counts, the results for `COC(=O)c1c(-c2ccccc2)noc1-c1cnn(-c2cccc(F)c2)c1C(F)(F)F` [Example I-51, methyl 5-(1-(3-fluorophenyl)-5-(trifluoromethyl)-1H-pyrazol-4-yl)-3-phenylisoxazole-4-carboxylate] are 1 to 10 µM and 1 to 10 µM.
Take `COC(=O)c1c(-c2c(F)cccc2Cl)noc1-c1cnn(-c2ccc(Cl)cc2Cl)c1C(F)(F)F` [Example I-7, methyl 3-(2-chloro-6-fluorophenyl)-5-(1-(2,4-dichlorophenyl)-5-(trifluoromethyl)-1H-pyrazol-4-yl)isoxazole-4-carboxylate]: in experiment [1] (setting [2]), the IC50 fell in the range of 1 to 10 µM.
On the same count and under the same terms, for `CCOC(=O)c1c(-c2onc(-c3c(F)cccc3Cl)c2C(=O)OC)cnn1-c1cc(F)cc(F)c1` [Example I-39, methyl 3-(2-chloro-6-fluorophenyl)-5-(1-(3,5-difluorophenyl)-5-(ethoxycarbonyl)-1-H-pyrazol-4-yl)isoxazole-4-carboxylate] the value was 1 to 10 µM.
Regarding `CCOC(=O)c1c(-c2onc(-c3c(F)cccc3Cl)c2C(=O)OC)cnn1CC(C)C` [Example I-29], the IC50 in experiment [1] (setting [2]) was in the range of 1 to 10 µM.
Take `CNC(=S)c1c(-c2c(F)cccc2Cl)noc1-c1cnn(-c2cccc(Cl)c2)c1C(F)(F)F` [Example I-72, 3-(2-chloro-6-fluorophenyl)-5-(1-(3-chlorophenyl)-5-(trifluoromethyl)-1H-pyrazol-4-yl)-N-methylisoxazole-4-carbothioamide]: the IC50 (with IFN-γ; in experiment [1] (setting [2])) was 0.1 to 1 µM throughout.

These data come from patent US8354436B2 (4SC Discovery GmbH, priority 2011, dated 2013).
